Results taken from US20100087385A1 (priority 2006, published 2010).

Key:
[1] = tested on: IBD mice (colon injury induced by acetic acid); test: Experiment II: acetic acid induced IBD in mice, ammonium glycyrrhizinate; type: in vivo, Kuming mice; conditions: for GSH / MPO / MDA / SOD: colon homogenate; for GSH / MPO / MDA / SOD / CMDI: once per day, 10 days; for GSH: normal 0.58 ± 0.12, model 0.16 ± 0.09; for MPO: normal 3.37 ± 0.31, model 1.33 ± 0.83; for MDA: normal 10.58 ± 2.74, model 26.2 ± 5.5; for SOD: normal 707 ± 105, model 309 ± 68; for CMDI: normal 0.73 ± 0.03, model 1.75 ± 0.35
Description: Kuming mice were randomly distributed into seven groups consisting of normal control, model group, Adis positive control, monoammonium glycyrrhizinate oral administration, diammonium glycyrrhizinate oral administration, triammonium glycyrrhizinate oral administration, diammonium glycyrrhizinate injection. In Adis group, mice were provided Adis 600 mg/kg after enema, once a day. In glycyrrhizinate oral administration groups, 14 mg/kg dose of individual glycyrrhizinate was applied once per day. Normal control and model group were orally given by equal amount of normal saline daily. After seven days drug treatment, all mice except for normal control were stimulated with acetic acid to induce IBD. On day six, starvation was applied after drug treatment to all groups. On day seven, after drug treatment, mice were put to sleep with ether and the procedure of enema was performed before injecting 0.1 ml of 6% acitic acid using polyethylene tubings. Acitic acid was injected into mice through anus in depth about 1.5 cm to induce IBD. One minute after the actic acid injection, wash twice with normal saline and let the animals lie down and awake naturally. For normal control, mice were treated with equal amount of saline. Drug treatment continued to day 10 to all groups. 24 hours after the last drug treatment, the mice were sacrificed. Take and weight the whole colon, score colon organ index, and evaluate CMDI. Colon tissues were homogenized in Tris buffer and adjusted to the concentration 5% for MPO, MDA, SOD, and GSH tests.
(§1) CMDI: Cut open the mouse along the mesentery and take the whole colon. Observe peritoneal adhesion, colon ulcer, and congestion. The standard of evaluation was listed on Table 1.
(§2) Myeloperoxidase (MPO): Carefully weight tissue samples, use Tris buffer (weight to volume ratio 1:19) to prepare 5% homogenization solution by high-speed homogenizer. Handle all steps on ice. Protein concentration was determined by method Lowry and use MPO test kit.
(§3) Lipid peroxidase (MDA): TBA was used to detect MDA in the homogenization solution
Superoxide dismutase (SOD): Method of pyrogallol was used to detect the activity of SOD in the homogenization solution
(§4) Glutathione (GSH): Follow the product insert coming with the test kit to detect GSH in the samples
The total score is combined with both parts of A and B.

[2] = tested on: IBD mice (colon injury induced by acetic acid); test: Experiment I: acetic acid induced IBD in mice, glycyrrhizin and glycyrrhetinic acid; type: in vivo, KuMing mice; conditions: glycyrrhizin 105 mg/kg, glycyrrhetinic acid 72 mg/kg; for CMDI / GSH / MPO / MDA / Inflammatory score / SOD: once per day, 10 days; for CMDI: normal 0.73 ± 0.03, model 1.75 ± 0.35; for GSH / MPO / MDA / SOD: colon homogenate; for GSH: normal 0.58 ± 0.12, model 0.16 ± 0.09; for MPO: normal 3.37 ± 0.31, model 1.33 ± 0.83; for MDA: normal 10.58 ± 2.74, model 26.2 ± 5.5; for CMDI of IBD mice decreased / MPO activity increased / inflammatory scores were lowered: once per day for ten days; for Inflammatory score: normal 0, model 7.50 ± 0.7; for SOD: normal 707 ± 105, model 309 ± 68
Description: In Adis group, mice were provided Adis 600 mg/kg afer enema, once per day. Normal control and model groups were orally given with equal amount of normal saline daily. After seven days drug treatment, all mice except for normal control were stimulated with acetic acid to induce IBD. On day six, starvation was applied after drug treatment to all groups. On day seven, after drug treatment, mice were put to sleep with ether and the procedure of enema was performed before injecting 0.1 ml of 6% acitic acid using polyethylene tubings. Acitic acid was injected into mice through anus in depth about 1.5 cm to induce IBD. One minute after the actic acid injection, wash twice with normal saline and let the animals lay down and awake naturally. For normal control, mice were treated with equal amount of saline.
Drug treatment continued to day 10 to all groups. 24 hours after the last drug treatment, the mice were sacrificed. Take and weight the whole colon, score colon organ index, and evaluate CMDI. Colon tissues were homogenized in Tris buffer and adjusted to the concentration 5% for MPO, MDA, SOD, and GSH tests.
as §1, §2, §3
Superoxide dismutas (SOD): Method of pyrogallol was used to detect the activity of SOD in the homogenization solution
as §4
The total score is combined with both parts of A with B.

[3] = oral 14 mg/kg, once per day for ten days
[4] = injection (IP.) 14 mg/kg, once per day for ten days

SMILES: CC1(C)[C@@H](O[C@H]2O[C@H](C(=O)O)[C@@H](O)[C@H](O)[C@H]2O[C@@H]2O[C@H](C(=O)O)[C@@H](O)[C@H](O)[C@H]2O)CC[C@]2(C)[C@H]3C(=O)C=C4[C@@H]5C[C@@](C)(C(=O)O)CC[C@]5(C)CC[C@@]4(C)[C@]3(C)CC[C@@H]12.N [monoammonium glycyrrhizinate]
- GSH ([1]; oral 14 mg/kg): 0.32 ± 0.12^ΔΔ mg/mgpro.
- MPO ([1]; oral 14 mg/kg): 2.99 ± 0.26^ΔΔ U/mgpro.
- MDA ([1]; oral 14 mg/kg): 16.14 ± 5.81^ΔΔ nmol/mgpro.
- SOD ([1]; oral 14 mg/kg): 412 ± 112^ΔΔ U/mgpro.
- CMDI of IBD mice decreased [1, 3]: 14.3%
- MPO activity increased [1, 3]: 1.25 ×
- inflammatory scores were lowered [1, 3]: 1.5 ×
- CMDI ([1]; oral 14 mg/kg): 1.50 ± 0.03^Δ g/100 g

SMILES: CC1(C)C2CC[C@]3(C)C(C(=O)C=C4C5C[C@@](C)(C(=O)O)CC[C@]5(C)CCC43C)[C@@]2(C)CC[C@@H]1O (some centres unmarked) [glycyrrhetinic acid]
- CMDI ([2]; IP injection): 1.07 ± 0.28^ΔΔ g/100 g
- GSH ([2]; IP injection): 0.31 ± 0.08^ΔΔ mg/mgpro.
- MPO ([2]; IP injection): 4.51 ± 0.35^ΔΔ U/mgpro.
- MDA ([2]; IP injection): 5.85 ± 1.33^ΔΔ nmol/mgpro.
- GSH ([2]; oral): 0.31 ± 0.08^ΔΔ mg/mgpro.
- MPO ([2]; oral): 3.48 ± 0.46^ΔΔ U/mgpro.
- MDA ([2]; oral): 4.56 ± 2.28^ΔΔ nmol/mgpro.
- CMDI of IBD mice decreased ([2]; injection (IP)): 63.55%
- MPO activity increased ([2]; injection (IP)): 2.39 ×
- inflammatory scores were lowered ([2]; injection (IP)): 2.75 ×
- CMDI of IBD mice decreased ([2]; oral): 57.65%
- MPO activity increased ([2]; oral): 1.62 ×
- CMDI ([2]; oral): 1.11 ± 0.41^ΔΔ g/100 g

SMILES: CC1(C)[C@@H](O[C@H]2O[C@H](C(=O)O)[C@@H](O)[C@H](O)[C@H]2O[C@@H]2O[C@H](C(=O)O)[C@@H](O)[C@H](O)[C@H]2O)CC[C@]2(C)[C@H]3C(=O)C=C4[C@@H]5C[C@@](C)(C(=O)O)CC[C@]5(C)CC[C@@]4(C)[C@]3(C)CC[C@@H]12 [Glycyrrhizin, glycyrrhizic acid]
- Inflammatory score ([2]; IP injection): 1.5 ± 0.41^ΔΔ
- Inflammatory score ([2]; IP injection, listed as glycyrrhizin): 1.5
- CMDI ([2]; IP injection): 0.88 ± 0.18^ΔΔ g/100 g
- GSH ([2]; IP injection): 0.36 ± 0.09^ΔΔ mg/mgpro.
- MPO ([2]; IP injection): 5.59 ± 0.94^ΔΔ U/mgpro.
- MDA ([2]; IP injection): 5.08 ± 1.91^ΔΔ nmol/mgpro.
- SOD ([2]; IP injection): 467 ± 49^ΔΔ U/mgpro.
- GSH ([2]; oral): 0.33 ± 0.22^ΔΔ mg/mgpro.
- MPO ([2]; oral): 5.09 ± 0.29^ΔΔ U/mgpro.
- MDA ([2]; oral): 6.04 ± 0.89^ΔΔ nmol/mgpro.
- SOD ([2]; oral): 425 ± 12^ΔΔ U/mgpro.
- CMDI of IBD mice decreased ([2]; injection (IP)): 98.86%
- MPO activity increased ([2]; injection (IP)): 3.20 ×
- inflammatory scores were lowered ([2]; injection (IP)): 4 ×
- CMDI of IBD mice decreased ([2]; oral): 82.3%
- MPO activity increased ([2]; oral): 2.83 ×
- inflammatory scores were lowered ([2]; oral): 4 ×
- Inflammatory score ([2]; oral): 1.5 ± 0.31^ΔΔ
- Inflammatory score ([2]; oral, listed as glycyrrhizin): 1.5
- CMDI ([2]; oral): 0.96 ± 0.03^ΔΔ g/100 g

SMILES: CC1(C)[C@@H](O[C@H]2O[C@H](C(=O)O)[C@@H](O)[C@H](O)[C@H]2O[C@@H]2O[C@H](C(=O)O)[C@@H](O)[C@H](O)[C@H]2O)CC[C@]2(C)[C@H]3C(=O)C=C4[C@@H]5C[C@@](C)(C(=O)O)CC[C@]5(C)CC[C@@]4(C)[C@]3(C)CC[C@@H]12.N.N [diammonium glycyrrhizinate]
- GSH ([1]; injection 14 mg/kg): 0.27 ± 0.13^ΔΔ mg/mgpro.
- MPO ([1]; injection 14 mg/kg): 3.55 ± 0.45^ΔΔ U/mgpro.
- MDA ([1]; injection 14 mg/kg): 7.85 ± 3.55^ΔΔ nmol/mgpro.
- SOD ([1]; injection 14 mg/kg): 533 ± 101^ΔΔ U/mgpro.
- GSH ([1]; oral 14 mg/kg): 0.49 ± 0.14^ΔΔ mg/mgpro.
- MPO ([1]; oral 14 mg/kg): 2.93 ± 0.26^ΔΔ U/mgpro.
- MDA ([1]; oral 14 mg/kg): 8.32 ± 5.04^ΔΔ nmol/mgpro.
- SOD ([1]; oral 14 mg/kg): 505 ± 132^ΔΔ U/mgpro.
- CMDI ([1]; injection 14 mg/kg): 0.97 ± 0.18^ΔΔ g/100 g
- CMDI of IBD mice decreased [1, 4]: 45.7%
- MPO activity increased [1, 4]: 1.67 ×
- inflammatory score was lowered [1, 4]: 2.75 ×
- CMDI of IBD mice decreased [1, 3]: 39.4%
- MPO activity increased [1, 3]: 1.20 ×
- inflammatory scores were lowered [1, 3]: 1.73 ×
- CMDI ([1]; oral 14 mg/kg): 1.06 ± 0.31^ΔΔ g/100 g

SMILES: CC1(C)[C@@H](O[C@H]2O[C@H](C(=O)O)[C@@H](O)[C@H](O)[C@H]2O[C@@H]2O[C@H](C(=O)O)[C@@H](O)[C@H](O)[C@H]2O)CC[C@]2(C)[C@H]3C(=O)C=C4[C@@H]5C[C@@](C)(C(=O)O)CC[C@]5(C)CC[C@@]4(C)[C@]3(C)CC[C@@H]12 [triammonium glycyrrhizinate]
- GSH ([1]; oral 14 mg/kg): 0.26 ± 0.09^ΔΔ mg/mgpro.
- MPO ([1]; oral 14 mg/kg): 1.59 ± 0.94^ΔΔ U/mgpro.
- MDA ([1]; oral 14 mg/kg): 16.88 ± 5.97^ΔΔ nmol/mgpro.
- SOD ([1]; oral 14 mg/kg): 368 ± 79^ΔΔ U/mgpro.
- CMDI of IBD mice decreased [1, 3]: 14.9%
- MPO activity increased [1, 3]: 0.20 ×
- inflammatory scores were lowered [1, 3]: 1.5 ×
- CMDI ([1]; oral 14 mg/kg): 1.49 ± 0.08^ΔΔ g/100 g
